Data: patent US9951056B2, “Substituted nicotinamide inhibitors of BTK and their preparation and use in the treatment of cancer, inflammation and autoimmune disease” (BEIJING INNOCARE PHARMA TECH CO., LTD., priority 2013, dated 2018)

Molecular target: BTK (Homo sapiens (Human), UniProt Q06187)
Assay: ADP-Glo kinase biochemical assay, IC50 determination of BTK inhibitors
Settings: ADP-Glo, ATP 50 uM; values given as bins
Procedure: Biological Properties: IC50 Determination of BTK Inhibitors in ADP-Glo Kinase Biochemical Assay
Those skilled in the art will appreciate that a variety of assay formats may be used to determine the activity of the compounds described herein.
ADP-Glo™ Kinase Assay (Cat. V9102, 10000 Tests), Components: • 1×50 ml ADP-Glo™ Reagent, • 1×100 ml Kinase Detection Buffer, • 1× Kinase Detection Substrate (Lyophilized), • 1×5 ml Ultra Pure ATP, 10 mM • 1×5 ml ADP, 10 mM
• Enzyme concentration: 8 ng/5 ul. • ATP concentration: 50 uM • Substrate (peptide) concentration: 0.2 mg/ml. • Reaction buffer composition: 40 mM Tris-HCl pH7.5, 10 mM MgCl2, 2 mM MnCl2, 0.1 mg/mL BSA, 0.05 mM DTT. • Test compound concentration: DMSO≤0.5%. Methods: Compound Dosage Gradient Solution Preparation: […]
1× and 2× assay buffer were made at first. BTK kinase was diluted with 1× assay buffer but substrate was diluted with 2× assay buffer. 1 ul of diluted compound was transferred into 384-well assay plate, and then 2.0 ul of enzyme solution was added, and spun at 2000 rpm for 1 min. This mixture was incubated at 24° C. for 30 mins. 2 ul of peptide substrate/ATP mixture was added into the assay plate to start the reaction. The mixture was mixed thoroughly and then the 384-well plate was spun and incubated at 24° C. for 60 mins. 5.0 ul of ADP-Glo Reagent was added to stop the kinase activity and deplete the ATP unconsumed, and the plate was mixed thoroughly and incubated at 24° C. for 40 min. Then, 10.0 ul of Kinase Detection reagent was added, and the plate was centrifuged and then kept at 24° C. for 30 min. The luminescence signal was read on Envision.
IC50 values of compounds were calculated from a 4-parameter fit using Equation (2): Y=Bottom+(TOP-Bottom)/(1+((C/X)^hillslope)) Equation (2)
In Equation 2, Y represents % inhibition, X is the log value of the test compound concentration. IC50 was the concentration of compound where half of maximal inhibition was achieved.
All data was analyzed with IDBS XLfit5 software (ID Business Solutions Ltd., UK).

BTK, sequence (Q06187 whole entry): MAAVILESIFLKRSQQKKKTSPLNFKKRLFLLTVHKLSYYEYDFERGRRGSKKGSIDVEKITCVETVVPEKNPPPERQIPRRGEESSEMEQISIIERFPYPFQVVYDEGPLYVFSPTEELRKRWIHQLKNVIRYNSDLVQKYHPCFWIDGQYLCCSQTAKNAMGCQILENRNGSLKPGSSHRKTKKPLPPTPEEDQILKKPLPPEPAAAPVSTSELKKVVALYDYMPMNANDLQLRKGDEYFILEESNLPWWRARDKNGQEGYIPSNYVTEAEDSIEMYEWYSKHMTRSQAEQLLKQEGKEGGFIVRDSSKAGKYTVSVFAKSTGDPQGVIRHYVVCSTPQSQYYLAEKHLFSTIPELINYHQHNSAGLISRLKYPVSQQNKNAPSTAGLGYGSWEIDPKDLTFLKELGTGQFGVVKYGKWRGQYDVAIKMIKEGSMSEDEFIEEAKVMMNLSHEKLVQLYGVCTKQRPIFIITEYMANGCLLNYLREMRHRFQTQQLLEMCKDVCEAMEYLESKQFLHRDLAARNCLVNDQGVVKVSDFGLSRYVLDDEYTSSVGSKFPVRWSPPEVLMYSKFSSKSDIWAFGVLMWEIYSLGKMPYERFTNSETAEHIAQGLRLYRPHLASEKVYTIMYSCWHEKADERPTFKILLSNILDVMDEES

IC50 | Compound
< 0.5 µM | C=CC(=O)Nc1cccc(-c2ccc(C(N)=O)c(-c3ccc(Oc4ccccc4)cc3)n2)c1 [Example 1, 6-(3-acrylamidophenyl)-2-(4-phenoxyphenyl)nicotinamide]
< 0.5 µM | C=CC(=O)Nc1ccc(-c2ccc(C(N)=O)c(-c3ccc(Oc4ccccc4)cc3)n2)cc1 [Example 7, 6-(4-acrylamidophenyl)-2-(4-phenoxyphenyl)nicotinamide]
< 0.5 µM | C=CC(=O)N1CCCC(c2ccc(C(N)=O)c(-c3ccc(Oc4ccccc4)cc3)n2)C1 (centres unmarked) [Example 8, 6-(1-acryloylpiperidin-3-yl)-2-(4-phenoxyphenyl)nicotnamide]
0.5 to 1 µM | C=CC(=O)NC1CCN(c2ccc(C(N)=O)c(-c3ccc(Oc4ccccc4)cc3)n2)CC1 [Example 9, 6-(4-acrylamidopiperidin-1-yl)-2-(4-phenoxyphenyl)nicotinamide]
< 0.5 µM | C=CC(=O)NC1CCN(c2ccc(C(N)=O)c(-c3ccc(Oc4ccccc4)cc3)n2)C1 (centres unmarked) [Example 10, 6-(3-acrylamidopyrrolidin-1-yl)-2-(4-phenoxyphenyl)nicotinamide]
< 0.5 µM | C=CC(=O)N1CCCC(n2cc(C(N)=O)c(-c3ccc(Oc4ccccc4)cc3)n2)C1 (centres unmarked) [Example 11, 1-(1-acryloylpiperidin-3-yl)-3-(4-phenoxyphenyl)-1H-pyrazole-4-carboxamide]
< 0.5 µM | C=CC(=O)N1CCC(n2cc(C(N)=O)c(-c3ccc(Oc4ccccc4)cc3)n2)CC1 [Example 12, 1-(1-acryloylpiperidin-4-yl)-3-(4-phenoxyphenyl)-1H-pyrazole-4-carboxamide]
< 0.5 µM | C=CC(=O)N1CCC(n2cc(C(N)=O)c(-c3ccc(Oc4ccccc4)cc3)n2)C1 (centres unmarked) [Example 13, 1-(1-acryloylpyrrolidin-3-yl)-3-(4-phenoxyphenyl)-1H-pyrazole-4-carboxamide]
≥ 1 µM | NC(=O)c1cn(C2CNC2)nc1-c1ccc(Oc2ccccc2)cc1 [Example 14, 1-(azetidin-3-yl)-3-(4-phenoxyphenyl)-1H-pyrazole-4-carboxamide]
< 0.5 µM | C=CC(=O)N1CC(n2cc(C(N)=O)c(-c3ccc(Oc4ccccc4)cc3)n2)C1 [Example 15, 1-(1-acryloylazetidin-3-yl)-3-(4-phenoxyphenyl)-1H-pyrazole-4-carboxamide]
< 0.5 µM | C=CC(=O)Nc1ccc(-n2cc(C(N)=O)c(-c3ccc(Oc4ccccc4)cc3)n2)cc1 [Example 16, 1-(4-acrylamidophenyl)-3-(4-phenoxyphenyl)-1H-pyrazole-4-carboxamide]
< 0.5 µM | NC(=O)c1cn(-c2cccc(N)c2)nc1-c1ccc(Oc2ccccc2)cc1 [Example 17, 1-(3-aminophenyl)-3-(4-phenoxyphenyl)-1H-pyrazole-4-carboxamide]
< 0.5 µM | C=CC(=O)Nc1cccc(-n2cc(C(N)=O)c(-c3ccc(Oc4ccccc4)cc3)n2)c1 [Example 18, 1-(3-acrylamidophenyl)-3-(4-phenoxyphenyl)-1H-pyrazole-4-carboxamide]
< 0.5 µM | C=CC(=O)N1CC[C@H](n2cc(C(N)=O)c(-c3ccc(Oc4ccccc4)cc3)n2)C1 [Example 19, (S)-1-(1-acryloylpyrrolidin-3-yl)-3-(4-phenoxyphenyl)-1H-pyrazole-4-carboxamide]
< 0.5 µM | C=CC(=O)N1CC[C@@H](n2cc(C(N)=O)c(-c3ccc(Oc4ccccc4)cc3)n2)C1 [Example 20, (R)-1-(1-acryloylpyrrolidin-3-yl)-3-(4-phenoxyphenyl)-1H-pyrazole-4-carboxamide]
< 0.5 µM | C=CC(=O)N1CCC(c2ncc(C(N)=O)c(-c3ccc(Oc4ccccc4)cc3)n2)CC1 [Example 21, 2-(1-acryloylpiperidin-4-yl)-4-(4-phenoxyphenyl)pyrimidine-5-carboxamide]
< 0.5 µM | C=CC(=O)N1CCC(c2ncc(C(N)=O)c(-c3ccc(Oc4ccccc4)cc3)n2)C1 (centres unmarked) [Example 22, 2-(1-acryloylpyrrolidin-3-yl)-4-(4-phenoxyphenyl)pyrimidine-5-carboxamide]
< 0.5 µM | C=CC(=O)N1CCC(c2ccc(C(N)=O)c(-c3ccc(Oc4ccccc4)cc3)n2)C1 (centres unmarked) [Example 23, 6-(1-acryloylpyrrolidin-3-yl)-2-(4-phenoxyphenyl)pyridine-3-carboxamide]
0.5 to 1 µM | C=CC(=O)N1CCC(c2ccc(C#N)c(-c3ccc(Oc4ccccc4)cc3)n2)CC1 [Example 24, 6-(1-acryloylpiperidin-4-yl)-2-(4-phenoxyphenyl)pyridine-3-carbonitrile]
< 0.5 µM | CN(C)C/C=C/C(=O)N1CCN(c2ccc(C(N)=O)c(-c3ccc(Oc4ccccc4)cc3)n2)CC1 [Example 25, (E)-6-(4-(4-(dimethylamino)but-2-enoyl)piperazin-1-yl)-2-(4-phenoxyphenyl)nicotinamide]
< 0.5 µM | C=CC(=O)N1CCN(c2ccc(C(=O)O)c(-c3ccc(Oc4ccccc4)cc3)n2)CC1 [Example 26, 6-(4-acryloylpiperazin-1-yl)-2-(4-phenoxyphenyl)pyridine-3-carboxylic acid]
≥ 1 µM | C=CC(=O)N1CCN(c2ccc(C(N)=O)c(-c3ccc(Oc4ccc(C#N)cc4)cc3)n2)CC1 [Example 27, 6-(4-acryloylpiperazin-1-yl)-2-(4-(4-cyanophenoxy)phenyl)nicotinamide]
< 0.5 µM | C=CC(=O)N1CCN(c2ccc(C(N)=O)c(-c3ccc(OC4CCCCC4)cc3)n2)CC1 [Example 28, 6-(4-acryloylpiperazin-1-yl)-2-(4-(cyclohexyloxy)phenyl)nicotinamide]
< 0.5 µM | C=CC(=O)N1CCN(c2ccc(C(N)=O)c(-c3ccc(C)c(OC)c3)n2)CC1 [Example 29, 6-(4-acryloylpiperazin-1-yl)-2-(3-methoxy-4-methylphenyl)nicotinamide]
≥ 1 µM | C=CC(=O)N1CCN(c2ccc(C(N)=O)c(-c3ccc(F)c(OC)c3)n2)CC1 [Example 30, 6-(4-acryloylpiperazin-1-yl)-2-(4-fluoro-3-methoxyphenyl)nicotinamide]
0.5 to 1 µM | C=CC(=O)N1CCN(c2ccc(C(N)=O)c(-c3ccc(Oc4ccccc4)nc3)n2)CC1 [Example 31, 6-(4-acryloylpiperazin-1-yl)-6′-phenoxy-2,3′-bipyridine-3-carboxamide]
< 0.5 µM | C=CC(=O)N1CCN(c2ccc(C(N)=O)c(-c3ccc(Oc4ccccn4)cc3)n2)CC1 [Example 32, 6-(4-acryloylpiperazin-1-yl)-2-(4-(pyridin-2-yloxy)phenyl)nicotinamide]
≥ 1 µM | C=CC(=O)N1CCN(c2ccc(C(N)=O)c(-c3ccc(Cl)cc3)n2)CC1 [Example 33, 6-(4-acryloylpiperazin-1-yl)-2-(4-chlorophenyl)nicotinamide]
< 0.5 µM | CN(C)C/C=C/C(=O)N1CCC(n2cc(C(N)=O)c(-c3ccc(Oc4ccccc4)cc3)n2)C1 (centres unmarked) [Example 34, 1-(1-(4-(dimethylamino)but-2-enoyl)pyrrolidin-3-yl)-3-(4-phenoxyphenyl)-1H-pyrazole-4-carboxamide]
< 0.5 µM | C=CC(=O)N1CCN(c2ccc(C(N)=O)c(-c3ccc(Oc4cccc(F)c4)cc3)n2)CC1 [Example 35, 6-(4-acryloylpiperazin-1-yl)-2-(4-(3-fluorophenoxy)phenyl)nicotinamide]

Compound | IC50
NC(=O)c1ccc(C2CCNCC2)nc1-c1ccc(Oc2ccccc2)cc1 [Example 2, 2-(4-phenoxyphenyl)-6-(piperidin-4-yl)nicotinamide] | ≥ 1 µM
NC(=O)c1ccc(N2CCNCC2)nc1-c1ccc(Oc2ccccc2)cc1 [Example 4, 2-(4-phenoxyphenyl)-6-(piperazin-1-yl)nicotinamide] | ≥ 1 µM
